Values joined by “and” are separate entries in the source; they are usually repeats but may differ in a detail not shown here. Equal entries are not always repeated.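 Assay format: 96-well plates, 48-hour exposure. The concentration for 50% growth inhibition is given as GI50. TGI: concentration producing complete growth inhibition.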

Test systems include IGROV1 ovarian; M14 melanoma; NCI-H226 lung; OVCAR-3 ovarian; SF-268 CNS; SK-MEL-2 melanoma; SK-MEL-28 melanoma; SNB-19 CNS; TK-10 renal; UO-31 renal.
Common to all, as to assay: inhibition of tumour cell growth, NCI panel, 48 h

`Cc1ccc(C(=O)/C(=C\c2ccc([N+](=O)[O-])cc2)S(=O)Cc2ccc(Cl)cc2)cc1` (stereo not drawn): the GI50 with IGROV1 ovarian was 1.77 µM; in the assay on M14 melanoma, 1.65 µM; in the assay with NCI-H226 lung, 2.81 µM; in the assay with OVCAR-3 ovarian, 1.7 µM; in the assay with SF-268 CNS it was 1.75 µM; in the assay on SK-MEL-2 melanoma, 1.96 µM. The GI50 in the assay on SK-MEL-28 melanoma was 1.76 µM; with SNB-19 CNS, 1.83 µM; in the assay with TK-10 renal it was 1.86 µM; with UO-31 renal, 1.41 µM. The TGI was 3.45 µM with IGROV1 ovarian; 3.19 µM in the assay with M14 melanoma; 11.5 µM in the assay with NCI-H226 lung; 3.14 µM in the assay with OVCAR-3 ovarian; 3.42 µM with SF-268 CNS; 4.15 µM in the assay on SK-MEL-2 melanoma. Further, the TGI with SK-MEL-28 melanoma turned out to be 3.4 µM; in the assay on SNB-19 CNS it was 3.68 µM; in the assay with TK-10 renal it was 3.89 µM; in the assay on UO-31 renal it was 2.78 µM.
As to `CN(CC(=O)Nc1nc2ccccc2[nH]1)S(=O)(=O)c1ccc(Cl)cc1`, the GI50 in the assay with IGROV1 ovarian was 21 µM; with M14 melanoma, above 100 µM; in the assay with NCI-H226 lung it was above 100 µM; in the assay on OVCAR-3 ovarian, above 100 µM; with SF-268 CNS, 43.2 µM; in the assay with SK-MEL-2 melanoma, 2.92 µM. The GI50 in the assay with SK-MEL-28 melanoma, with SNB-19 CNS, with TK-10 renal and in the assay with UO-31 renal was above 100 µM each time. The TGI with IGROV1 ovarian, in the assay on M14 melanoma, in the assay on NCI-H226 lung, in the assay on OVCAR-3 ovarian, in the assay on SF-268 CNS and in the assay on SK-MEL-2 melanoma was above 100 µM throughout. The TGI in the assay on SK-MEL-28 melanoma, in the assay with SNB-19 CNS, with TK-10 renal and with UO-31 renal was above 100 µM each time.
Take `O=C(/C=C/C12c3ccccc3C(c3ccccc31)C1C(=O)NC(=O)C12)c1ccc(F)cc1` (stereo not drawn): the GI50 in the assay on IGROV1 ovarian is 2.09 µM; in the assay on M14 melanoma it was 1.92 µM; with NCI-H226 lung, 2.74 µM; with OVCAR-3 ovarian, 1.7 µM; with SF-268 CNS it was 1.65 µM; in the assay with SK-MEL-2 melanoma, 2.06 µM. Moreover, the GI50 is 1.85 µM in the assay on SK-MEL-28 melanoma, 1.65 µM with SNB-19 CNS, 2.69 µM in the assay on TK-10 renal and 1.42 µM with UO-31 renal. The TGI was determined as 5.9 µM with IGROV1 ovarian; 3.96 µM in the assay with M14 melanoma; 9.51 µM in the assay with NCI-H226 lung; 3.15 µM with OVCAR-3 ovarian; 3.2 µM with SF-268 CNS; 4.23 µM in the assay on SK-MEL-2 melanoma. In addition, the TGI with SK-MEL-28 melanoma was 3.39 µM; in the assay with SNB-19 CNS, 3.18 µM; in the assay on TK-10 renal, 6.43 µM; with UO-31 renal, 2.85 µM.
As for `C/C(=N\NC(=S)SCc1ccccc1)c1ccccn1`, the TGI in the assay with IGROV1 ovarian is 30.2 µM; with M14 melanoma, 6.44 µM; in the assay on NCI-H226 lung, 1.62 µM; with SF-268 CNS it was 11.4 µM; with SK-MEL-2 melanoma it was 11.6 µM; in the assay on SNB-19 CNS it was 18.3 µM. Moreover, the results for the TGI with TK-10 renal and in the assay with UO-31 renal were 13.5 µM and 14.2 µM, respectively.
For `C/C(=C\c1cc(C(F)(F)F)n(-c2ccc(N)cc2)n1)[C@@H]1C[C@@H]2O[C@]2(C)CCC[C@H](C)[C@H](O)[C@@H](C)C(=O)C(C)(C)[C@@H](O)CC(=O)O1`, the GI50 is 0.068 µM with IGROV1 ovarian; 0.0166 µM with M14 melanoma; 0.956 µM in the assay on NCI-H226 lung; 0.0182 µM in the assay with OVCAR-3 ovarian; 0.0502 µM in the assay with SF-268 CNS; 0.0295 µM in the assay with SK-MEL-2 melanoma. The GI50 in the assay with SK-MEL-28 melanoma is 0.547 µM; in the assay with SNB-19 CNS, 0.0711 µM; in the assay on TK-10 renal it was 0.0578 µM; in the assay on UO-31 renal, 0.0791 µM. The TGI with IGROV1 ovarian is above 11.1 µM; with M14 melanoma, 0.096 µM; with NCI-H226 lung, above 11.1 µM; in the assay on OVCAR-3 ovarian it was 1.75 µM; in the assay on SF-268 CNS, above 11.1 µM; in the assay on SK-MEL-2 melanoma, 0.382 µM. Also, the TGI with SK-MEL-28 melanoma was above 11.1 µM; with SNB-19 CNS, above 11.1 µM; in the assay with TK-10 renal, 7.95 µM; in the assay on UO-31 renal, above 11.1 µM.
For `N#CC1(C#N)C2C=CC(c3coc4cccc2c34)C1(C#N)C#N` (stereo not drawn), the TGI in the assay on IGROV1 ovarian is 35.9 µM; with M14 melanoma, 25.3 µM; in the assay with NCI-H226 lung, 34.3 µM; with OVCAR-3 ovarian, 29.9 µM; in the assay on SF-268 CNS, 20.3 µM; in the assay with SK-MEL-2 melanoma, 92.6 µM. In addition, the TGI in the assay with SK-MEL-28 melanoma worked out at 10.8 µM; in the assay on SNB-19 CNS, 33.8 µM; in the assay on TK-10 renal, 18.6 µM; in the assay with UO-31 renal, 25.6 µM.
Take `O=C(CCn1[nH]c(=O)c(Cl)c(Cl)c1=O)NNC(=O)C[n+]1ccccc1`: the TGI in the assay on IGROV1 ovarian, with M14 melanoma, with NCI-H226 lung, in the assay with OVCAR-3 ovarian, in the assay with SF-268 CNS and with SK-MEL-2 melanoma was above 100 µM throughout. For the same molecule, the TGI in the assay on SK-MEL-28 melanoma, with SNB-19 CNS, in the assay on TK-10 renal and in the assay with UO-31 renal was above 100 µM in each case.
In the case of `O=C1C2CCN(CC2)C1(CO)CO`, the TGI with IGROV1 ovarian is above 100 µM; in the assay with M14 melanoma, 38.8 µM; in the assay on NCI-H226 lung, 46.6 µM; with OVCAR-3 ovarian it was 31 µM; in the assay with SF-268 CNS it was above 100 µM; with SK-MEL-2 melanoma, above 100 µM. For the same molecule, the TGI with SK-MEL-28 melanoma is 44.5 µM; in the assay with SNB-19 CNS, above 100 µM; in the assay with TK-10 renal it was 32.2 µM; with UO-31 renal it was 34.1 µM.
Regarding `COc1cc2nccc(Oc3ccc(NC(=O)Nc4cc(C)on4)c(Cl)c3)c2cc1OC`, the GI50 is 2.51 µM and 2.85 µM with IGROV1 ovarian; 2.55 µM and 3.05 µM in the assay with M14 melanoma; 0.795 µM and 0.438 µM in the assay with NCI-H226 lung; 4 µM and 7.96 µM in the assay with OVCAR-3 ovarian; 2.58 µM and 3.09 µM in the assay on SF-268 CNS; 3.56 µM and 3.33 µM in the assay with SK-MEL-2 melanoma. The GI50 with SK-MEL-28 melanoma was 3.76 µM and 4.31 µM; with SNB-19 CNS, 5.12 µM and > 10 µM; in the assay on TK-10 renal it was 3.42 µM and 3.9 µM; with UO-31 renal it was 1.88 µM and 2.5 µM. Further, the TGI in the assay on IGROV1 ovarian is 8.36 µM and > 10 µM; in the assay with M14 melanoma, 7.83 µM and > 10 µM; with NCI-H226 lung, 35.2 µM and > 10 µM; in the assay with OVCAR-3 ovarian, 14.4 µM and > 10 µM; in the assay with SF-268 CNS it was above 55.3 µM; in the assay with SK-MEL-2 melanoma, 10.4 µM and > 10 µM. Further, the TGI in the assay on SK-MEL-28 melanoma is 19.3 µM and > 10 µM; in the assay on SNB-19 CNS it was above 100 µM; in the assay on TK-10 renal, 13.2 µM and > 10 µM; with UO-31 renal, 5.76 µM and > 10 µM.
